Values joined by “and” are separate entries in the source; they are usually repeats but may differ in a detail not shown here. Identical values can stand only once. Like-named read-outs stand apart in the source and are kept apart here.
Legend:
[1] = pKa of the lipid by TNS fluorescence; format: physicochemical
How it was run: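 Lipid dissolved in ethanol (2 mM stock) and measured with TNS across eight buffers of differing pH, in water at standard temperature and pressure. Normalized fluorescence intensity plotted against pH and points joined by a smooth line to derive pKa, precise to about 0.2 units.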

Factor VII = Factor VII activity assay, in vivo liver delivery of FVII siRNA LNP; design: species or system mouse; details: for FVII inhib %: ~48 h
How it was run: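 Female CD-1 mice (~25 g) given a single i.v. tail-vein dose of FVII siRNA in LNPs (cationic, stealth, neutral lipids), dosed as mg siRNA/kg. Plasma collected ~48 h post-injection; FVII activity read against a standard curve from pooled vehicle-control plasma.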

[2] = system: PLK-1 mRNA in Hep3B tumors; test: Hep3B tumor study, PLK-1 mRNA KD in tumor tissue; format: in vivo, human; details: for PLK1 inhibition %: Hep3B tumor, mouse, i.v., LNP composition as in the source; for % KD: formulation containing E0011 and S004
Text: Formulated siRNAs are made up of double stranded siRNA sequences specific to a target mRNA sequence, and are in the form of lipid nucleotid particles (LNPs) containing cationic lipids, stealth lipids and neutral lipids, as provided in the Examples below. The siRNA construct for use in targeting the liver is specific to Factor VII. The siRNA construct for use in targeting tumors is specific to PLK1-424, which is published by Judge et al., See, J Clin Invest. 2009 March; 119(3):661-73; doi: 10.1172/JCI37515). • 1. FVII siRNA duplex sequence
Hep3B tumors are established in female nude mice by sc injection of 7×10^6 cells in 100 ul PBS into the left flank. Mice are randomized into treatment groups 10-14 days after seeding as tumors reached an average size of 100 mm^3. siRNA formulated LNP formulations are administered at various dose levels intravenously via the lateral tail vein calculated on a mg siRNAs/kg basis according to individual animal weights (10 ml/kg injection volume). Mice are euthanized by CO2 inhalation at various time points and the tumors are harvested for mRNA quantitation. Lipids with a wide range of pKa (5.3-6.6) are used in the LNP formulations. Tumors are measured in 2 dimensions (width×length) to assess tumor growth using digital calipers. Tumor volume is calculated using the equation [a×b×b/2], where a equals the largest diameter and b equals the smallest diameter.
About 30-50 mg tumor tissue is homogenized in tissue lysis buffer in a Qiagen homogenizer followed by centrifugation to clarify lysates. Total RNA is isolated using RNeasy isolation kit (catalog number 74106) according to the manufacture's protocol. PLK-1 mRNA is analyzed by quantitative PCR and normalized to human GAPDH. Applied Biosystems human PLK-1 gene expression assay Hs00983229_m1 and human GAPDH endogenous control cat number 4326317E are used for mRNA detection.
The pKa in all tables refers to the pKa of the cationic lipid. Where multiple doses are indicated (e.g., 3×5), the first number indicates the number of doses given and the second number indicates the amount per dose in mg siRNA (biologically active agent) per kg mouse. In general the multiple doses are administered at 24 hour intervals, and tissues for mRNA quantitation are harvested 24 hours after the last dose.

[3] = Particle size and PDI by dynamic light scattering (Malvern Zetasizer); format: physicochemical; design: Final size: unit not given here; details: for Final size: LNP formulation, Table 10
How it was run: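 Nanoparticles diluted in PBS to a count rate of about 200-400 kcts and measured by dynamic light scattering; size given as intensity-weighted average diameter, with polydispersity index from the same measurement.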

[4] = dose 3 mg/kg siRNA i.v., lipid/DSPC/CHOL/AVANTI 880150P 50/28/18/4, N/P 3.43
[5] = dose 3 mg/kg siRNA i.v., lipid/no neutral lipid/CHOL/AVANTI 880150P 50/0/46/4, N/P 3.43
[6] = lipid/DSPC/CHOL/AVANTI 880150P 50/28/18/4, N/P 3.43
[7] = lipid/no neutral lipid/CHOL/AVANTI 880150P 50/0/46/4, N/P 3.43
[8] = dose 1 mg/kg siRNA i.v., lipid/DSPC/CHOL/AVANTI 880150P 50/28/18/4, N/P 3.43
[9] = LNP formulation with PLK1 siRNA, helper, neutral and stealth lipid, molar ratio and N/P as in the table
[10] = lipid/no neutral lipid/CHOL/GM-020 NOF 60/0/34/6, N/P 3
[11] = lipid/no neutral lipid/CHOL/GM-020 NOF 60/0/36/4, N/P 3
[12] = lipid/no neutral lipid/CHOL/GM-020 NOF 60/0/38/2, N/P 3
[13] = lipid/no neutral lipid/CHOL/S006 60/0/37/3, N/P 3
[14] = lipid/no neutral lipid/CHOL/S010 60/0/37/3, N/P 3

Structure (SMILES) | pKa ([1]; pKa) | FVII inhib % (Factor VII; [4]) | FVII inhib % (Factor VII; [5]) | Final size (nm) [3, 6] | PDI [3, 6] | Final size (nm) [3, 7] | PDI [3, 7] | PLK1 inhibition % ([2]; 1 × 10 mg siRNA/kg) | Final size (nm) [3, 9] | PLK1 inhibition % ([2]; 1 × 1 mg siRNA/kg) | further results
CCCCC/C=C\C/C=C\CCCCCCCCOCC(CN1CCOCC1)OCCOCCO[C@H]1CC[C@@]2(C)C(=CC[C@H]3[C@@H]4CC[C@H]([C@H](C)CCCC(C)C)[C@@]4(C)CC[C@@H]32)C1 (some centres unmarked) [E0011] | 5.32 | 86.5% | 92.3% | 111 nm | 0.221 | 108 nm | 0.23 | – | – | – | PLK1 inhibition % ([2]; 1 × 5 mg siRNA/kg): 66%; PLK1 inhibition % ([2]; 3 × 10 mg siRNA/kg): 71%; % KD ([2]; Table 9, 1×10 mg/kg siRNA): 70%; % KD ([2]; Table 9, 3×5 mg/kg siRNA): 67%; Final size ([3]; stealth lipid S018): 113.2; Final size ([3]; stealth lipid S019): 110; Final size ([3]; stealth lipid S020): 74.42
CCCCC/C=C\C/C=C\CCCCCCCCOCC(CN1CCCCC1)OCCOCCO[C@H]1CC[C@@]2(C)C(=CCC3C2CC[C@@]2(C)C3CC[C@@H]2[C@H](C)CCCC(C)C)C1 (some centres unmarked) [E0014] | 6.4 | – | 97.4% | 104 nm and 95 nm | 0.151 and 0.148 | 148 nm | 0.05 | 22% | 82.21 nm | – | pKa [1]: 6.4; FVII inhib % (Factor VII; [8]): 72.1%; FVII inhib % (Factor VII; dose 1 mg/kg siRNA i.v., lipid/no neutral lipid/CHOL/GM-020 NOF 60/0/34/6, N/P 3): 25%; FVII inhib % (Factor VII; dose 1 mg/kg siRNA i.v., lipid/no neutral lipid/CHOL/GM-020 NOF 60/0/36/4, N/P 3, 1 mg/kg): 68.5% and 37.6%; FVII inhib % (Factor VII; dose 1 mg/kg siRNA i.v., lipid/no neutral lipid/CHOL/GM-020 NOF 60/0/38/2, N/P 3): 71.5%; FVII inhib % (Factor VII; dose 3 mg/kg siRNA i.v., lipid/DSPC/CHOL/AVANTI 880150P 50/28/18/4, N/P 3.43, 3 mg/kg): 98.6% and 95.8%; FVII inhib % (Factor VII; dose 3 mg/kg siRNA i.v., lipid/no neutral lipid/CHOL/GM-020 NOF 60/0/34/6, N/P 3): 96.6%; FVII inhib % (Factor VII; dose 3 mg/kg siRNA i.v., lipid/no neutral lipid/CHOL/GM-020 NOF 60/0/36/4, N/P 3): 94%; FVII inhib % (Factor VII; dose 3 mg/kg siRNA i.v., lipid/no neutral lipid/CHOL/GM-020 NOF 60/0/38/2, N/P 3): 96.2%; in vivo Factor VII inhibition (Factor VII; formulation containing the cationic lipid, RNAi construct specific to Factor VII, liver): 97.4%; Final size (nm) [3, 10]: 85.8 nm; PDI [3, 10]: 0.106; Final size (nm) [3, 11]: 101.5 nm and 94.6 nm; PDI [3, 11]: 0.182 and 0.092; Final size (nm) [3, 12]: 141 nm; PDI [3, 12]: 0.122
CCCCC/C=C\C/C=C\CCCCCCCCOCC(CN1CCC(OC)C1)OCCOCCO[C@H]1CC[C@@]2(C)C(=CC[C@H]3[C@@H]4CC[C@H]([C@H](C)CCCC(C)C)[C@@]4(C)CC[C@@H]32)C1 (some centres unmarked) [E0024] | 6.62 | 99.9% | 99.5% | 100 nm | 0.148 | 149 nm and 125 nm | 0.092 and 0.08 | 15% | – | – | FVII inhib % (Factor VII; [8]): 85.3%; FVII inhib % (Factor VII; dose 1 mg/kg siRNA i.v., lipid/no neutral lipid/CHOL/AVANTI 880150P 50/0/46/4, N/P 3.43): 95.7%; FVII inhib % (Factor VII; dose 1 mg/kg siRNA i.v., lipid/no neutral lipid/CHOL/S006 60/0/37/3, N/P 3): 83.8%; FVII inhib % (Factor VII; dose 1 mg/kg siRNA i.v., lipid/no neutral lipid/CHOL/S010 60/0/37/3, N/P 3): 72.2%; PLK1 inhibition % ([2]; 4 × 5 mg siRNA/kg): 23%; Final size (nm) ([3]; LNP formulation with PLK1 siRNA, helper, neutral and stealth lipid, molar ratio and N/P as in the table, stealth lipid S004, molar ratio 60/38/0/2, N/P 3): 120.6 nm; Final size (nm) ([3]; LNP formulation with PLK1 siRNA, helper, neutral and stealth lipid, molar ratio and N/P as in the table, stealth lipid S011, molar ratio 40/48/10/2, N/P 3): 88.46 nm; Final size (nm) [3, 13]: 98.53 nm; PDI [3, 13]: 0.12; Final size (nm) [3, 14]: 96.09 nm; PDI [3, 14]: 0.137
CCCCC/C=C\C/C=C\CCCCCCCCOCC(CN1CCC(CCC)C1)OCCOCCO[C@H]1CC[C@@]2(C)C(=CCC3C2CC[C@@]2(C)C3CC[C@@H]2[C@H](C)CCCC(C)C)C1 (some centres unmarked) [E0025] | 5.45 | 63% | 94.2% | 97 nm | 0.22 | 73 nm | 0.12 | – | – | 27% | Final size (nm) ([3]; LNP formulation with PLK1 siRNA, helper, neutral and stealth lipid, molar ratio and N/P as in the table, stealth lipid S004, molar ratio 45/43/10/2, N/P 4): 118.8 nm; Final size (nm) ([3]; LNP formulation with PLK1 siRNA, helper, neutral and stealth lipid, molar ratio and N/P as in the table, stealth lipid S011, molar ratio 40/48/10/2, N/P 4): 85.63 nm; Final size (nm) ([3]; LNP formulation with PLK1 siRNA, helper, neutral and stealth lipid, molar ratio and N/P as in the table, stealth lipid S011, molar ratio 60/38/2, N/P 4): 95.73 nm
CCCCC/C=C\C/C=C\CCCCCCCCOCC(CN1CCC(O)C1)OCCOCCO[C@H]1CC[C@@]2(C)C(=CC[C@H]3[C@@H]4CC[C@H]([C@H](C)CCCC(C)C)[C@@]4(C)CC[C@@H]32)C1 (some centres unmarked) [E0045] | 4.73 | 10.4% | 90.7% | 100 nm | 0.18 | 103 nm | 0.25 | – | 103.2 nm | 36% | –
CCCCC/C=C\C/C=C\CCCCCCCCOCC(Cn1ccnc1)OCCOCCO[C@H]1CC[C@@]2(C)C(=CCC3C2CC[C@@]2(C)C3CC[C@@H]2[C@H](C)CCCC(C)C)C1 (some centres unmarked) [E0051] | 5.73 | 17% | 77.5% | 157.7 nm | 0.131 | 142.9 nm | 0.057 | 17% | 85.77 nm | – | –
CCCCCCCC/C=C\CCCCCCCCOCC(CN1CCCCC1)OCCO[C@H]1CC[C@@]2(C)C(=CC[C@H]3[C@@H]4CC[C@H]([C@H](C)CCCC(C)C)[C@@]4(C)CC[C@@H]32)C1 (some centres unmarked) [E0061] | 6.28 | – | – | – | – | – | – | – | 90.09 nm | 23% | FVII inhib % (Factor VII; dose 1 mg/kg siRNA i.v., lipid/no neutral lipid/CHOL/GM-020 NOF 60/0/36/4, N/P 3): 52.6%; Final size (nm) [3, 11]: 139.4 nm; PDI [3, 11]: 0.073
